Experimental data as given in patent US7615380B2, “Methods for modulating an immune response by modulating KRC activity” (President and Fellows of Harvard College, priority 2001, dated 2009).

Columns and labels:
Assay type in all cases: cell-based, human
[1] = system: IL-2 promoter; test: IL-2 promoter, NFAT/AP-1 and NFAT luciferase reporters and IL-2 RT-PCR in Jurkat cells
Protocol: FIG. 19(A) Stably transfected Jurkat T cell clones with vector (vec) or KRC (Jurkat-KRC) were stimulated with PMA (50 ng/mL) plus ionomycin (2 μM) for 6 hours. IL-2 mRNA abundance was determined by RT-PCR with tubulin as an internal control. FIG. 19(B) Jurkat cells were transiently transfected with an IL-2-Luciferase reporter along with Vector, KRC, or KRCtr (amino acids 204-1055) and, in all cases, a CMV-β-Gal reporter as an internal control (see text for details). 24 hours later, cells were stimulated with PMA plus ionomycin for 6 hours (upper panel) or Raji cells loaded with SEE for 8 hours (lower panel). Luciferase activity was determined and normalized for β-Galactosidase activity. FIG. 19(C) Jurkat cells were transiently transfected with NFAT/AP-1-, NFAT-, or AP-1-Luciferase reporters and treated as above.
For each transfection, 5×10^6 Jurkat cells were incubated with either IL2-Luc, NFAT/AP1-Luc or AP1-Luc reporter DNA together with pEF vector or pEF-KRC and CMV-βGAL as normalization control in 0.4 ml of RPMI and transfected by electroporation (260 v, 975 uF). Transfected cells were cultured at 37° C. for 20 h in RPMI 1640 medium (Gibco BRL) supplemented with 10% fetal bovine serum. Transfected cells were stimulated with PMA (50 ng/ml) and ionomycin (2 uM) for 6 hours prior to luciferase (Promega) and β-galactosidase assays (Galacton-PLUS substrate system, TROPIX, Inc).
Total RNA was isolated from T cells using TRIZOL™ reagent (Gibco/BRL). One (1) μg of total RNA was reverse transcribed using iScript cDNA Synthesis Kit (BioRad). PCR was performed with 2 uM of each primer (listed below) and 2.5 units of Platinum High fidelity enzyme (Invitrogen) according to the manufacturer.
Jurkat cells were transfected by electroporation and incubated for 20 h at 37° C. before stimulation for 8 h with the Raj i B cell line and Staphylococcal Enteroxin E (SEE) using Raji cells (1:1 with Jurkat cells) and SEE (200 ng/ml).

[2] = system: MAPK (ERK, p38, JNK); test: MAPK activity in Jurkat cells (PathDetect reporter, immunoprecipitation-kinase assay)
Protocol: FIG. 20(A) Jurkat cells were transiently transfected with AP-1 Luciferase reporter along with KRC and RasN17 DN vectors. 24 hours later cells were pretreated with Rottlerin (10 μM) and stimulated for 6 hours with PMA plus ionomycin. Luciferase activity was measured as above. FIG. 20(B) Jurkat cells were transfected with a GAL4 Luciferase reporter along with a GAL4 DNA binding domain, GAL4-ATF2, or GAL4-ELK1 with or without KRC. 24 hours later, cells were stimulated with PMA plus ionomycin and analyzed for Luciferase activity as above. FIG. 20(C) Jurkat cells were transiently transfected with FLAG-JNK2, and either Vector, KRC, or MKK7. 48 hours later, cells were stimulated with PMA plus ionomycin for 6 hours and JNK activity was determined by immunoprecipitation/kinase assay. […]
KRC may enhance AP-1 function indirectly through the modulation of MAPK activity, kinases downstream of Ras that are known to potently stimulate AP-1 function (Binetruy, B., et al. (1991) Nature 351:122-127; Deng, T., and M. Karin (1994) Nature 371:171-175; Murphy, L., et al. (2002) Nat. Cell Biol. 4: 556-564). […] Co-expression of KRC with HA-ERK1, myc-ERK2, Flag-P38 and Flag-JNK2 was performed and the activity of each kinase was measured using an immunoprecipitation-kinase assay with specific substrates, GST-Elk1, GST-ATF2 and GST-Jun for each MAPK. […]

[3] = system: CD69; test: CD69 expression by FACS in transfected Jurkat T cells
Protocol: KRC was transfected into Jurkat T cells and CD69 expression was measured by FACS analysis.

[4] = system: JNK; test: JNK in vitro kinase assay after transfection of 293 cells; conditions: 293 cells cotransfected with TRAF2, 24 hours
Protocol: Inhibition of TRAF2 (A) and TNFα (B, C) mediated JNK/SAPK activation by ectopic expression of KRC. (A) 293 T cells were transfected with 400 ng of TRAF2 and 2 μg of the indicated expression vector. Twenty-four hours after the transfection, the cells were harvested and lysed, and the endogenous JNK was precipitated with 5 μg of GST-cJUN (1-79) for 4 hours. JNK activity was determined by using GST-cJUN (1-79) as a substrate. (B,C) 293 T cells were cotransfected with vectors encoding HA-tagged JNK2 (500ng) and the indicated expression vector (2 μg). Twenty-four hours after the transfection cells were stimulated for 10 min with 10 ng/ml of TNFα and cells harvested at varying time points. JNK activity was assayed with GST-cJUN (1-79) as substrate.
Anti-HA or anti-FLAG immunoprecipitates were used for immune complex kinase assays that were performed at 30° C. for 30 min with 1 μg of substrate, 10 μCi of γ^32 P ATP, and 10 μM ATP in 30 μl of kinase buffer (20 mM HEPES, pH 7.4, 10 mM MgCl2, 25 mM β-glycerophosphate, 50 μm NA3VO4, and 50 μm DTT). The substrate was GST-c-JUN.

[5] = system: F-actin; test: F-actin immunofluorescence in Jurkat T cells
Protocol: Immunofluorescence of F-actin upon KRC overexpression in Jurkat T cells was performed.

KRC: full-length KRC zinc finger protein (SEQ ID NO:2) overexpressed from an expression vector
PMA/ionomycin induced activity of NFAT reporter ([1]; Jurkat cells): not further increased
IL-2 promoter-luciferase induction ([1]; Jurkat cells, PMA plus ionomycin): approximately 10 fold
transactivation of multimerized NFAT/AP-1 and AP-1 elements ([1]; Jurkat cells, PMA/ionomycin): enhanced PMA/ionomycin-induced transactivation
IL-2 promoter activity increase ([1]; Jurkat cells, Raji cells plus SEE): approximately 10 fold
IL-2 mRNA transcripts (RT PCR) ([1]; stable Jurkat clones, activated): higher levels of IL-2 transcripts
MAPK activity, immunoprecipitation-kinase assay ([2]; ERK1, ERK2, P38, JNK2): no detectable effect on any of the MAPKs
MAPK / p38 activity, PathDetect reporter (ELK-1, ATF2) ([2]; Jurkat cells): unable to modulate either MAPK or p38 activity
CD69 expression [3]: increases expression of CD69
TRAF2-dependent JNK activation [4]: blocked JNK activation only partially
actin polymerization (F-actin) [5]: reorganization of F-actin filaments
